Laboratory results published in DBAASP.
≈ marks a conversion by molar mass, not a printed value. Each block holds one compound with its values, some of them ahead of it.

Tests used:
Assay in all cases: ≥ marks a high value that may be exact or a test limit, other limits are often not marked, values filed in µg/mL are converted to µM
[1] = system: Escherichia coli 078
[2] = system: Escherichia coli UB1005
[3] = system: Staphylococcus epidermidis ATCC 12228
[4] = system: Streptococcus agalactiae CICC 10465
[5] = system: Streptococcus agalactiae
[6] = system: Staphylococcus aureus ATCC 25923
[7] = system: Salmonella enterica subsp. enterica serovar Pullorum ATCC 7913
[8] = system: Salmonella enterica subsp. enterica serovar Typhimurium ATCC 14028
[9] = system: Streptococcus thermophilus YM-C
[10] = system: Pseudomonas aeruginosa ATCC 27853
[11] = system: Salmonella enterica subsp. enterica serovar Typhimurium C77-31
[12] = system: Lacticaseibacillus rhamnosus 7469
[13] = system: Staphylococcus aureus ATCC 29213
[14] = system: Escherichia coli ATCC 25922
[15] = system: Candida albicans ATCC 10231
[16] = system: Enterococcus faecalis PCM 2673
[17] = system: Pseudomonas aeruginosa ATCC 9027
[18] = system: Klebsiella pneumoniae ATCC 13883
[19] = system: Staphylococcus aureus USA 300 LAC
[20] = system: Candida viswanathii NBRC 10321
[21] = system: Micrococcus luteus NBRC 3333
[22] = system: Staphylococcus epidermidis NBRC 12993
[23] = system: Escherichia coli NBRC 3972
[24] = system: Aspergillus oryzae NBRC 100959
[25] = system: Bacillus cereus ATCC 14579
[26] = system: Pseudomonas aeruginosa PAO1
[27] = system: Bacillus licheniformis ATCC 14580
[28] = system: Bacillus amyloliquefaciens ATCC 23842
[29] = system: Salmonella enterica ATCC H9812
[30] = system: Bacillus subtilis ATCC 6051
[31] = system: Proteus mirabilis ATCC 35659
[32] = system: Enterococcus faecalis 1F-1
[33] = system: Enterococcus faecium 5F-10
[34] = system: Acinetobacter baumannii CCARM 12035
[35] = system: Staphylococcus aureus KCTC 1621
[36] = system: Bacillus subtilis KCTC 3068
[37] = system: Salmonella typhimurium CCARM 8009
[38] = system: Pseudomonas aeruginosa CCARM 2095
[39] = system: Escherichia coli CCARM 1229
[40] = system: Salmonella typhimurium KCTC 1926
[41] = system: Pseudomonas aeruginosa KCTC 1637
[42] = system: Escherichia coli KCTC 1682
[43] = system: Enterococcus faecalis KCTC 2011

MIC [1]: 4 µM (≈ 7.74 µg/mL) | MIC [2]: 8 µM (≈ 15.5 µg/mL) | MIC [3]: 4 µM (≈ 7.74 µg/mL) | MIC [4]: 2 µM (≈ 3.87 µg/mL) | MIC [5]: 5.66 µM (≈ 10.9 µg/mL) | MIC [6]: 8 µM (≈ 15.5 µg/mL) | MIC [7]: 8 µM (≈ 15.5 µg/mL) | MIC [8]: 4 µM (≈ 7.74 µg/mL) | MIC [9]: ≥ 64 µM | MIC [10]: 4 µM (≈ 7.74 µg/mL) | MIC [11]: 4 µM (≈ 7.74 µg/mL) | MIC [12]: ≥ 32 µM | MIC [13]: 4 µM (≈ 7.74 µg/mL) | MIC [14]: 4 µM (≈ 7.74 µg/mL)
SMILES: CC[C@H](C)[C@H](NC(=O)[C@H](CC(C)C)NC(=O)[C@@H](NC(=O)[C@@H](N)CC(=O)O)[C@@H](C)CC)C(=O)N[C@H](C(=O)N[C@H](C(=O)NCC(=O)NCC(=O)N[C@@H](CCCCN)C(=O)N[C@@H](CCC(N)=O)C(=O)N[C@@H](CCCN=C(N)N)C(=O)N[C@@H](CCCCN)C(=O)N[C@@H](CCCCN)C(=O)N[C@@H](CCCN=C(N)N)C(=O)N[C@@H](CCCN=C(N)N)C(=O)N[C@@H](CCCN=C(N)N)C(N)=O)C(C)C)[C@@H](C)CC [DILIIVGGKQRKKRRR]

MIC [15]: 22.5 µM (≈ 32 µg/mL) | MIC [16]: 22.5 µM (≈ 32 µg/mL) | MIC [6]: 22.5 µM (≈ 32 µg/mL) | MIC [17]: 45 µM (≈ 64 µg/mL) | MIC [14]: 11.2 µM (≈ 16 µg/mL)
SMILES: CC[C@H](C)[C@H](NC(=O)[C@H](CCCCN)NC(=O)[C@H](CCCCN)NC(=O)[C@@H](NC(=O)[C@@H](NC(=O)[C@H](CC(=O)O)NC(=O)[C@H](Cc1ccccc1)NC(=O)[C@H](CC(C)C)NC(=O)CN)[C@@H](C)CC)[C@@H](C)CC)C(=O)N[C@@H](C)C(=O)N[C@@H](C)C(=O)N[C@@H](CO)C(=O)N[C@@H](Cc1ccccc1)C(N)=O [GLFDIIKKIAASF]

MIC [18]: 8.8 µM (≈ 11.2 µg/mL) | MIC [19]: 4.38 µM (≈ 5.58 µg/mL) | MIC [14]: 12.5 µM (≈ 15.9 µg/mL)
SMILES: CC[C@H](C)[C@H](NC(=O)[C@H](CCCCN)NC(=O)[C@H](CCCN=C(N)N)NC(=O)[C@@H](N)CC(C)C)C(=O)N[C@@H](Cc1c[nH]c2ccccc12)C(=O)N[C@@H](Cc1c[nH]c2ccccc12)C(=O)N[C@@H](Cc1c[nH]c2ccccc12)C(=O)N[C@@H](Cc1c[nH]c2ccccc12)C(N)=O [LRKIWWWW]

MIC [20]: 25.7 µM (≈ 50 µg/mL) | MIC [21]: 25.7 µM (≈ 50 µg/mL) | MIC [22]: 12.9 µM (≈ 25 µg/mL) | MIC [23]: ≥ 411 µM | MIC [24]: 12.9 µM (≈ 25 µg/mL)
SMILES: CC[C@H](C)[C@H](NC(=O)[C@H](CCCCN)NC(=O)[C@@H](N)CCCN=C(N)N)C(=O)N[C@@H](CCCCN)C(=O)N[C@@H](CCCN=C(N)N)C(=O)N[C@@H](Cc1ccc(O)cc1)C(=O)N[C@@H](CC(C)C)C(=O)N[C@@H](CCCN=C(N)N)C(=O)N[C@@H](CCCN=C(N)N)C(=O)N[C@@H](CCSC)C(=O)N[C@H](C(=O)N[C@H](C(=O)N[C@H](C(=O)N[C@@H](Cc1c[nH]c2ccccc12)C(=O)O)[C@@H](C)CC)[C@@H](C)CC)[C@@H](C)CC [RKIKRYLRRMIIIW]

MIC [25]: ≥ 154 µM | MIC [26]: > 154 µM | MIC [27]: ≥ 154 µM | MIC [28]: ≥ 154 µM | MIC [29]: ≥ 154 µM | MIC [30]: ≥ 154 µM | MIC [31]: ≥ 154 µM | MIC [32]: ≥ 154 µM | MIC [13]: > 154 µM | MIC [14]: > 154 µM | MIC [33]: ≥ 154 µM
SMILES: CC(C)C[C@H](NC(=O)[C@H](CC(C)C)NC(=O)[C@H](CCC(=O)O)NC(=O)[C@H](CC(=O)O)NC(=O)[C@@H](NC(=O)[C@@H](N)CCCN=C(N)N)C(C)C)C(=O)N[C@@H](CO)C(=O)O [RVDELLS]

MIC [34]: 8 µM (≈ 20.6 µg/mL) | MIC [35]: 16 µM (≈ 41.3 µg/mL) | MIC [36]: 16 µM (≈ 41.3 µg/mL) | MIC [37]: 4 µM (≈ 10.3 µg/mL) | MIC [38]: 8 µM (≈ 20.6 µg/mL) | MIC [39]: 2 µM (≈ 5.16 µg/mL) | MIC [40]: 2 µM (≈ 5.16 µg/mL) | MIC [41]: 2 µM (≈ 5.16 µg/mL) | MIC [42]: 1 µM (≈ 2.58 µg/mL) | MIC [43]: ≥ 128 µM
SMILES: CC[C@H](C)[C@H](NC(=O)CNC(=O)[C@H](CC(=O)O)NC(=O)[C@H](CCCN=C(N)N)NC(=O)[C@@H](NC(=O)[C@H](CC(N)=O)NC(=O)[C@H](CCCN=C(N)N)NC(=O)CNC(=O)[C@@H](NC(=O)[C@H](CCCCN)NC(=O)[C@H](CCC(=O)O)NC(=O)[C@@H](NC(=O)[C@H](CCCCN)NC(=O)[C@H](CCCCN)NC(=O)[C@H](C)NC(=O)[C@@H](NC(=O)[C@H](CCCCN)NC(=O)[C@H](Cc1c[nH]c2ccccc12)NC(=O)[C@@H](N)CCCN=C(N)N)[C@@H](C)CC)[C@@H](C)CC)C(C)C)C(C)C)C(=O)N[C@H](C(=O)N[C@@H](CCCCN)C(=O)N[C@@H](C)C(N)=O)[C@@H](C)CC [RWKIAKKIEKVGRNVRDGIIKA]

MIC [34]: 2 µM (≈ 5.31 µg/mL) | MIC [35]: 8 µM (≈ 21.2 µg/mL) | MIC [36]: 8 µM (≈ 21.2 µg/mL) | MIC [37]: 2 µM (≈ 5.31 µg/mL) | MIC [38]: 2 µM (≈ 5.31 µg/mL) | MIC [39]: 4 µM (≈ 10.6 µg/mL) | MIC [40]: 2 µM (≈ 5.31 µg/mL) | MIC [41]: 2 µM (≈ 5.31 µg/mL) | MIC [42]: 1 µM (≈ 2.65 µg/mL) | MIC [43]: ≥ 64 µM
SMILES: CC[C@H](C)[C@H](NC(=O)CNC(=O)[C@H](CC(=O)O)NC(=O)[C@H](CCCN=C(N)N)NC(=O)[C@@H](NC(=O)[C@H](CC(N)=O)NC(=O)[C@H](CCCN=C(N)N)NC(=O)CNC(=O)[C@@H](NC(=O)[C@H](CCCCN)NC(=O)[C@H](CCC(=O)O)NC(=O)[C@@H](NC(=O)[C@H](CCCCN)NC(=O)[C@H](CCCCN)NC(=O)[C@H](Cc1ccccc1)NC(=O)[C@@H](NC(=O)[C@H](CCCCN)NC(=O)[C@H](Cc1c[nH]c2ccccc12)NC(=O)[C@@H](N)CCCN=C(N)N)[C@@H](C)CC)[C@@H](C)CC)C(C)C)C(C)C)C(=O)N[C@H](C(=O)N[C@@H](CCCCN)C(=O)N[C@@H](C)C(N)=O)[C@@H](C)CC [RWKIFKKIEKVGRNVRDGIIKA]

MIC [18]: 25 µM (≈ 31.8 µg/mL) | MIC [19]: 4.38 µM (≈ 5.58 µg/mL) | MIC [14]: 17.7 µM (≈ 22.5 µg/mL)
SMILES: CC[C@H](C)[C@H](NC(=O)[C@H](CCCCN)NC(=O)[C@H](CCCN=C(N)N)NC(=O)[C@H](CC(C)C)NC(=O)[C@@H](N)Cc1c[nH]c2ccccc12)C(=O)N[C@@H](Cc1c[nH]c2ccccc12)C(=O)N[C@@H](Cc1c[nH]c2ccccc12)C(=O)N[C@@H](Cc1c[nH]c2ccccc12)C(N)=O [WLRKIWWW]
